Patent publication US8501446B2 (Vertex Pharmaceuticals Incorporated, priority 2004, dated 2013)

Legend:
Type in all cases: biochemical
ROCK I (AA 6-553) = target: T1, ROCK I (AA 6-553) (Homo sapiens, UniProt Q13464); assay: ROCK inhibition assay, standard coupled enzyme system ("Enzyme"); conditions: enzyme-linked assay
T1 construct: ROCK I (AA 6-553)
In short: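 ROCK I (AA 6-553) at 45 nM and 30 °C with 45 μM ATP and 200 μM peptide, in 100 mM HEPES pH 7.5, 10 mM MgCl2, 25 mM NaCl, 2 mM DTT, 1.5% DMSO. ADP output read by a PK/LDH coupled system: 2.5 mM PEP, 350 μM NADH, 30 μg/ml PK, 10 μg/ml LDH.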

[1] = target: T2, full length Aurora-A (AA 1-403) (Homo sapiens, UniProt O14965); assay: Aurora-A inhibition assay, standard coupled enzyme system; conditions: average Ki if more than one value determined
T2 construct: full length Aurora-A (AA 1-403)
T2 sequence (O14965 1-403): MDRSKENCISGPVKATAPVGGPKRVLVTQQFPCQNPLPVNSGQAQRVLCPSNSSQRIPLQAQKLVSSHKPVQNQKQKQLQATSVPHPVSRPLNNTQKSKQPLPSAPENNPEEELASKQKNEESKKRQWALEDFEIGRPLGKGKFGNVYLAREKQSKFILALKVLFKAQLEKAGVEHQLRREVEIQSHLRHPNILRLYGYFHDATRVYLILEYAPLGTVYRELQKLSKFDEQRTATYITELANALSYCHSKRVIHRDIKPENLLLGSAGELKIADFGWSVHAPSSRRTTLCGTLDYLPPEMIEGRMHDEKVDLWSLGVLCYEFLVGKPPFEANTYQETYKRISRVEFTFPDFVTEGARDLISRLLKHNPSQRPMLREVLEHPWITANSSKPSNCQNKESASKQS

Aurora-C = target: T3, Aurora-C (Homo sapiens, UniProt Q9UQB9); assay: Aurora-C inhibition assay, coupled enzyme system as for Aurora-A; conditions: average Ki if more than one value determined
T3 sequence (Q9UQB9 1-309): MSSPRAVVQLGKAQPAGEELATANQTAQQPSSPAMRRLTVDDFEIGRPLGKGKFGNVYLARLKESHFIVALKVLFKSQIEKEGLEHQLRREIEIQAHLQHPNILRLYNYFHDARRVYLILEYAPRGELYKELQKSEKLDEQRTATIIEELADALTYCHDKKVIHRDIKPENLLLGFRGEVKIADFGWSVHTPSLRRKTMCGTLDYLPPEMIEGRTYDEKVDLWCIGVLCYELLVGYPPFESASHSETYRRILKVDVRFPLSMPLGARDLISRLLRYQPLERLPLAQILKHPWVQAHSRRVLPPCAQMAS
Description: Compounds were screened for their ability to inhibit full length Aurora-A (AA 1-403) activity using a standard coupled enzyme system (Fox et al., Protein Sci. 7, pp. 2249 (1998)). Reactions were carried out in a solution containing 100 mM HEPES (pH 7.5), 10 mM MgCl2, 25 mM NaCl, 300 μM NADH, 1 mM DTT and 3% DMSO. Final substrate concentrations in the assay were 200 μM ATP (Sigma Chemicals, St Louis, Mo.) and 800 μM peptide (LRRASLG, American Peptide, Sunnyvale, Calif.). Reactions were carried out at 30° C. and 35 nM Aurora-A. Final concentrations of the components of the coupled enzyme system were 2.5 mM phosphoenolpyruvate, 200 μM NADH, 60 μg/ml pyruvate kinase and 20 μg/ml lactate dehydrogenase.
An assay stock buffer solution was prepared containing all of the reagents listed above with the exception of ATP and the test compound of interest. The assay stock buffer solution (60 μl) was incubated in a 96 well plate with 2 μl of the test compound of interest at final concentrations spanning 0.002 μM to 30 μM at 30° C. for 10 min. Typically, a 12 point titration was conducted by preparing serial dilutions (from 1 mM compound stocks) with DMSO of the test compounds in daughter plates. The reaction was initiated by the addition of 5 μl of ATP (final concentration 200 μM). Rates of reaction were obtained using a Molecular Devices Spectramax plate reader (Sunnyvale, Calif.) over 10 min at 30° C. The Ki values were determined from the rate data as a function of inhibitor concentration using computerized nonlinear regression (Prism 3.0, Graphpad Software, San Diego, Calif.). Aurora-C activity was screened in a similar manner using Aurora-C protein. Aurora-B activity was screened using a radioactive assay, such as described in Examples 1 and 2, but using Aurora-B protein.

Aurora-B = Aurora-B (Homo sapiens, UniProt Q96GD4); assay: Aurora-B inhibition assay, radioactive assay; conditions: average Ki if more than one value determined
Sequence of Aurora-B (Q96GD4 whole entry): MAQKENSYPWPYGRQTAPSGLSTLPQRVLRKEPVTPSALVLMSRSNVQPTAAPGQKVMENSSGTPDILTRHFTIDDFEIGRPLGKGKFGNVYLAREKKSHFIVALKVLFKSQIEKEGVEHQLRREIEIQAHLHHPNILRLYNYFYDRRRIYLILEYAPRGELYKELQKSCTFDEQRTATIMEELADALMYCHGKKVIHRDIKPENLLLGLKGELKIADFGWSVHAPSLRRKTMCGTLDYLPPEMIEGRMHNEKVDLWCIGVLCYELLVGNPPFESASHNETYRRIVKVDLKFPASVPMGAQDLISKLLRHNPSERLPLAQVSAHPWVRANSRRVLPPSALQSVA
In short: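 Radiometric [γ-33P]ATP kinase assay run as described for JAK3/ROCK but with Aurora-B protein; 33P incorporation into substrate measured by filter capture and scintillation counting after TCA quench. Background-subtracted data fit to give Ki(app).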

JAK2 = JAK2 (Homo sapiens, UniProt O60674); assay: JAK2 inhibition assay (radioactive enzyme assay, as for JAK3); conditions: average Ki if more than one value determined
Sequence of JAK2 (O60674 whole entry, species assumed): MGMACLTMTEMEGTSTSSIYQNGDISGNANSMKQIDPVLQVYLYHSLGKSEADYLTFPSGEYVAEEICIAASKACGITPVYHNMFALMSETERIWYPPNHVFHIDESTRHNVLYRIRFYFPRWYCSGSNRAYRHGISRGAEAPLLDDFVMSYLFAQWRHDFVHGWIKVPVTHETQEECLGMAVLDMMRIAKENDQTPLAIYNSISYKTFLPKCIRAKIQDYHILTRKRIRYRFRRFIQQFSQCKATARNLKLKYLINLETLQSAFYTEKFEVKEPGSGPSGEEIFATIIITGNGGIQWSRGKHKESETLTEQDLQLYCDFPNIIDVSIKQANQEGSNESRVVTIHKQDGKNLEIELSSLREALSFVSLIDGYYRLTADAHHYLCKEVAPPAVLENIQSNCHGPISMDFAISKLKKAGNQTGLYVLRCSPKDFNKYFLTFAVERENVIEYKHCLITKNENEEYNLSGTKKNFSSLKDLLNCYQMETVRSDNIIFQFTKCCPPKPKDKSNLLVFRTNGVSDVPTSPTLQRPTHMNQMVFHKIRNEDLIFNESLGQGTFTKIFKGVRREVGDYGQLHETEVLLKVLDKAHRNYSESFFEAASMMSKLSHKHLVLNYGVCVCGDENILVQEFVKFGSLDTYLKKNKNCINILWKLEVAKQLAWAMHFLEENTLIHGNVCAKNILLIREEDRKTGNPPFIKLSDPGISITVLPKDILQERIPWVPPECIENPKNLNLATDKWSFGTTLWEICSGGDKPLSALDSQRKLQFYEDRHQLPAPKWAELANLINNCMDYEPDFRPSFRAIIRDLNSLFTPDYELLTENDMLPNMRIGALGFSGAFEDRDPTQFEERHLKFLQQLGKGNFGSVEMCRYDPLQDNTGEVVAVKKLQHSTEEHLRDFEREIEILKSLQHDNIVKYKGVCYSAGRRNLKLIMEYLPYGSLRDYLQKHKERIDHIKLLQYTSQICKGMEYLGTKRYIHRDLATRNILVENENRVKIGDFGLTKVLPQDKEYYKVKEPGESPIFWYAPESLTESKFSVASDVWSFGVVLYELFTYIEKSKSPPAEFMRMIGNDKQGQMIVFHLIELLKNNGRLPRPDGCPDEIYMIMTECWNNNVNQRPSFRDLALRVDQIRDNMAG
In short: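 Both kinases: poly(Glu)4Tyr substrate in 100 mM HEPES pH 7.4, 10 mM MgCl2, 1 mM DTT. Run 20 min at 25° C, TCA stop, filter-bound ³³P counted, Ki(app) fitted after background subtraction. JAK3: final [γ-³³P]ATP 5 μM, enzyme added as 2 nM solution. JAK2: final poly(Glu)4Tyr 15 μM, final ATP 12 μM.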

T1 sequence (Q13464 6-553, species assumed): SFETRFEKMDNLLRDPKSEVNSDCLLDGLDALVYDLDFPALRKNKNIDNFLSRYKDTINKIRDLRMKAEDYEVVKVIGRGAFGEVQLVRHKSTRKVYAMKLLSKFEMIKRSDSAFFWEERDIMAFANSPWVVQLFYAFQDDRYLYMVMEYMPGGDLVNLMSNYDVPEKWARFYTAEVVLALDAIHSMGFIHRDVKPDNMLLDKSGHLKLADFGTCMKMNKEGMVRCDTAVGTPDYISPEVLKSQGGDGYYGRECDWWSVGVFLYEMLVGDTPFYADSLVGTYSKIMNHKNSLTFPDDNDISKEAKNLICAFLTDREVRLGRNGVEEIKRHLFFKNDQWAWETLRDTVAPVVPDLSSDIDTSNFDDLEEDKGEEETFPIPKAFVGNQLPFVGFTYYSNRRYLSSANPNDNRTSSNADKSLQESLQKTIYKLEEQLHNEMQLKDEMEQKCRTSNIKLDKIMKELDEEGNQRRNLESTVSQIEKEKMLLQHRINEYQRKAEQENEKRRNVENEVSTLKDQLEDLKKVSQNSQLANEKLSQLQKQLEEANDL

| Ki (ROCK I (AA 6-553)) [nM] | Ki [1] [nM] | Ki (Aurora-C) [nM] | Ki (Aurora-B) [nM] | Ki (JAK2) [nM] | SMILES |
| --- | --- | --- | --- | --- | --- |
| 500 to 5000 | < 500 | < 500 | < 500 |  | CNC(=O)[C@H](C)Nc1nc(-c2c[nH]c3ncc(Cl)cc23)ncc1F [Compound 340] |
| 500 to 5000 | < 500 | < 500 | < 500 |  | CC[C@H](Nc1nc(-c2c[nH]c3ncc(Cl)cc23)ncc1F)C(=O)NC [Compound 361] |
| 500 to 5000 | < 500 | < 500 | < 500 |  | CNC(=O)[C@@H](Nc1nc(-c2c[nH]c3ncc(Cl)cc23)ncc1F)C(C)C [Compound 362] |
| 500 to 5000 | < 500 | < 500 | < 500 |  | C[C@H](Nc1nc(-c2c[nH]c3ncc(Cl)cc23)ncc1F)C(=O)NCCNS(C)(=O)=O [Compound 368] |
| 500 to 5000 | < 500 | < 500 | < 500 |  | CNC(=O)[C@H](CO)Nc1nc(-c2c[nH]c3ncc(Cl)cc23)ncc1F [Compound 387] |
| 500 to 5000 | < 500 | 500 to 5000 | 500 to 5000 |  | CC(C)c1cnc(-c2c[nH]c3ncc(Cl)cc23)nc1N[C@@H](C)C(=O)NCC(F)(F)F [Compound 429] |
| 500 to 5000 | < 500 | < 500 | < 500 |  | C[C@H](Nc1nc(-c2c[nH]c3ncc(Cl)cc23)ncc1F)C(=O)NCCN [Compound 431] |
| 500 to 5000 | < 500 | < 500 | < 500 | < 500 | C[C@H](Nc1nc(-c2c[nH]c3ncc(Cl)cc23)ncc1F)C(=O)NCCn1cccc1 [Compound 443] |
| 500 to 5000 | < 500 | < 500 | < 500 | 500 to 5000 | CC(=O)NCCNC(=O)[C@H](C)Nc1nc(-c2c[nH]c3ncc(Cl)cc23)ncc1F [Compound 444] |
| 500 to 5000 | < 500 | < 500 | < 500 | 500 to 5000 | C[C@H](Nc1nc(-c2c[nH]c3ncc(Cl)cc23)ncc1F)C(=O)NCCc1ccc(S(N)(=O)=O)cc1 [Compound 446] |
| 500 to 5000 | < 500 | 500 to 5000 | 500 to 5000 |  | CCSCCNC(=O)[C@H](C)Nc1nc(-c2c[nH]c3ncc(Cl)cc23)ncc1F [Compound 447] |
| 500 to 5000 | < 500 | < 500 | < 500 | 500 to 5000 | Cc1cc(N[C@@H](C)C(=O)NCCNS(C)(=O)=O)nc(-c2c[nH]c3ncc(Cl)cc23)n1 [Compound 450] |
| 500 to 5000 | < 500 | < 500 | < 500 |  | CNCCNC(=O)[C@H](C)Nc1nc(-c2c[nH]c3ncc(Cl)cc23)ncc1F [Compound 452] |
| 500 to 5000 | < 500 | 500 to 5000 | 500 to 5000 |  | CC(C)S(=O)(=O)NCCNC(=O)[C@H](C)Nc1nc(-c2c[nH]c3ncc(Cl)cc23)ncc1F [Compound 454] |

Further lines, the compound ahead of its results:

| SMILES | Ki (ROCK I (AA 6-553)) [nM] | Ki [1] [nM] | Ki (Aurora-C) [nM] | Ki (Aurora-B) [nM] | Ki (JAK2) [nM] |
| --- | --- | --- | --- | --- | --- |
| C[C@H](Nc1cc(CO)nc(-c2c[nH]c3ncc(Cl)cc23)n1)c1ccc(F)cc1 [Compound 339] | 500 to 5000 | < 500 | < 500 | < 500 |  |
| Fc1cnc(-c2c[nH]c3ncc(Cl)cc23)nc1NC1CCNCC1 [Compound 345] | < 500 | < 500 | 500 to 5000 | 500 to 5000 |  |
| Fc1cnc(-c2c[nH]c3ncc(Cl)cc23)nc1NC1CCCNC1 (centres unmarked) [Compound 347] | < 500 | < 500 | 500 to 5000 | 500 to 5000 |  |
| Fc1cnc(-c2c[nH]c3ncc(Cl)cc23)nc1NC1CCOCC1 [Compound 348] | 500 to 5000 | < 500 | < 500 | < 500 |  |
| Fc1cnc(-c2c[nH]c3ncc(Cl)cc23)nc1NCC1CCCCC1 [Compound 349] | 500 to 5000 | < 500 | < 500 | < 500 |  |
| C[C@H](Nc1nc(-c2c[nH]c3ncc(Cl)cc23)ncc1F)C1CCCCC1 [Compound 355] | 500 to 5000 | < 500 | < 500 | < 500 |  |
| Fc1cnc(-c2c[nH]c3ncc(Cl)cc23)nc1NC1CCCCC1 [Compound 356] | 500 to 5000 | < 500 | < 500 | < 500 |  |
| CNC(=O)c1cc(N[C@@H](C)c2ccc(F)cc2)nc(-c2c[nH]c3ncc(Cl)cc23)n1 [Compound 359] | 500 to 5000 | < 500 | < 500 | < 500 |  |
| C[C@H](Nc1nc(-c2c[nH]c3ncc(Cl)cc23)ncc1C(=O)O)c1ccc(F)cc1 [Compound 370] | 500 to 5000 | < 500 | < 500 | < 500 |  |
| C[C@H](Nc1nc(-c2c[nH]c3ncc(Cl)cc23)ncc1C(F)(F)F)c1ccc(F)cc1 [Compound 371] | 500 to 5000 | < 500 | < 500 | < 500 | < 500 |
| C#Cc1cnc2[nH]cc(-c3ncc(F)c(N[C@@H](C)c4ccc(F)cc4)n3)c2c1 [Compound 374] | 500 to 5000 | < 500 | < 500 | < 500 |  |
| CCc1cnc(-c2c[nH]c3ncc(Cl)cc23)nc1N[C@@H](C)c1ccc(F)cc1 [Compound 386] | 500 to 5000 | < 500 | < 500 | < 500 | < 500 |
| C[C@H](Nc1nc(-c2c[nH]c3ncc(Cl)cc23)ncc1C#N)C(=O)NCC(F)(F)F [Compound 420] | 500 to 5000 | < 500 | < 500 | < 500 |  |
| O=C(CNc1nc(-c2c[nH]c3ncc(Cl)cc23)nc2ccccc12)NCC(F)(F)F [Compound 427] | 500 to 5000 | < 500 | 500 to 5000 | 500 to 5000 |  |
| CNC(=O)CNc1nc(-c2c[nH]c3ncc(Cl)cc23)ncc1C(C)C [Compound 430] | 500 to 5000 | < 500 | 500 to 5000 | 500 to 5000 |  |
